This is an account of results in PubChem BioAssay (NCI).

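Tested at 5 concentrations; 48 h exposure; 96-well plates; endpoints linearly interpolated, else capped at highest concentration. Abbreviation: GI50, concentration required for 50% inhibition of growth. At the TGI there is no net growth.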

What all share (assay): NCI-60 cell line screen, 48 h
Assay [1] deals with 786-0 renal.
Assay [2] relates to CCRF-CEM leukemia.
Assay [3] relates to DU-145 prostate.
Assay [4] deals with LOX IMVI melanoma.
For assay [5], the system named is MOLT-4 leukemia.
Assay [6] has as its system PC-3 prostate.
In assay [7] the test system is SK-OV-3 ovarian.
The test system of assay [8] is U251 CNS.

For `CCc1ccc2c(c1)C(=O)c1c-2n(CCCN=[N+]=[N-])c(=O)c2cc(OC)c(OC)cc12`, the GI50 in assay [1] was 40.6 µM; in assay [2], more than 100 µM; in assay [3] it was more than 100 µM; in assay [4], more than 100 µM; in assay [5] it was more than 100 µM; in assay [6], more than 100 µM. For the same compound, the GI50 in assay [7] was more than 100 µM; in assay [8] it was 47.1 µM. The TGI in assay [1], in assay [2], in assay [3], in assay [4], in assay [5] and in assay [6] was more than 100 µM each time. Further, the TGI in assay [7] and in assay [8] was more than 100 µM each time.
With `O=C1C(SCCO)=C(SCCO)C(=O)N1c1ccc(-c2ccccc2)cc1`, the GI50 in assay [1] is 1.33 µM; in assay [2] it was 2.34 µM; in assay [3] it was 3.59 µM; in assay [4], 2.7 µM; in assay [5] it was 18.9 µM; in assay [6] it was 1.07 µM. The results for the GI50 in assay [7] and in assay [8] were 32.7 µM and 5.21 µM, respectively. Also, the TGI in assay [1] was 2.84 µM; in assay [2], 6.87 µM; in assay [3], 8.94 µM; in assay [4], 8.44 µM; in assay [5], 73.1 µM; in assay [6], 7.57 µM. Moreover, the TGI is more than 100 µM in assay [7] and 15.7 µM in assay [8].
Regarding `Cc1nn(-c2ccc([N+](=O)[O-])cc2)c2ncnc(N/N=C/c3ccccc3O)c12`, the GI50 was 0.539 µM in assay [1]; 0.222 µM in assay [2]; 0.382 µM in assay [3]; 0.22 µM in assay [4]; 0.321 µM in assay [5]; 0.587 µM in assay [6]. In addition, the results for the GI50 in assay [7] and in assay [8] were 0.497 µM and 0.332 µM, respectively. Moreover, the TGI was 3.41 µM in assay [1]; more than 100 µM in assay [2]; more than 100 µM in assay [3]; 1.47 µM in assay [4]; more than 100 µM in assay [5]; more than 100 µM in assay [6]. Moreover, the TGI in assay [7] was more than 22.1 µM; in assay [8], 2.44 µM.
As for `C=C1c2ccoc2C[C@H]2[C@H]1CC[C@@]1(O)[C@@](C)(C(=O)OC)CCC[C@]21C`, the GI50 in assay [1] was 40.1 µM; in assay [2], 23.5 µM; in assay [3], 38.4 µM; in assay [4], 17.6 µM; in assay [5], 15.6 µM; in assay [6] it was 27.6 µM. Also, the GI50 in assay [7] was more than 100 µM; in assay [8] it was 42.4 µM. For the same compound, the TGI in assay [1] is more than 100 µM; in assay [2] it was 60.1 µM; in assay [3] it was more than 100 µM; in assay [4] it was 36.7 µM; in assay [5], 43.3 µM; in assay [6], more than 100 µM. For the same compound, the TGI in assay [7] and in assay [8] was more than 100 µM throughout.
Take `CN(C)c1ccc(C(=NO)c2ccc(N(C)C)cc2)cc1`: the GI50 in assay [1] was 7.49 µM; in assay [2] it was 3.27 µM; in assay [3] it was 4.52 µM; in assay [4] it was 6.29 µM; in assay [5] it was 3.02 µM; in assay [6], 18.1 µM. The figures for the GI50 in assay [7] and in assay [8] were 3.57 µM and 2.68 µM, respectively. Moreover, the TGI in assay [1], in assay [2], in assay [3], in assay [4], in assay [5] and in assay [6] was more than 100 µM each time. The TGI in assay [7] and in assay [8] was more than 100 µM in each case.
Take `O1[As]2O[As]3O[As]1O[As](O2)O3`: the GI50 was 0.528 µM in assay [1]; 0.161 µM in assay [2]; 2.08 µM in assay [3]; 0.657 µM in assay [4]; 1.28 µM in assay [5]; 0.781 µM in assay [6]. The GI50 in assay [7] was 2.8 µM; in assay [8] it was 0.294 µM. Also, the TGI in assay [1] is 1.82 µM; in assay [2], 1.11 µM; in assay [3] it was 7.21 µM; in assay [4], 2.13 µM; in assay [5], 4.58 µM; in assay [6], 5.9 µM. The figures for the TGI in assay [7] and in assay [8] were 7 µM and 1.25 µM, respectively.
As for `O=S(=O)(c1cccc2c(I)cccc12)N1CCCNCC1`, the GI50 in assay [1] was 16.9 µM; in assay [2] it was 14.1 µM; in assay [3], 15.8 µM; in assay [4] it was 18.3 µM; in assay [5], 10.9 µM; in assay [6], 14.9 µM. The figures for the GI50 in assay [7] and in assay [8] were 20.2 µM and 19.6 µM, respectively. Further, the TGI in assay [1] was 32.8 µM; in assay [2], 32.2 µM; in assay [3], 36.3 µM; in assay [4], 36.6 µM; in assay [5] it was 27.6 µM; in assay [6], 32.8 µM. The figures for the TGI in assay [7] and in assay [8] were 37.6 µM and 39.1 µM, respectively.
`Cc1ccc(-c2nc3nc(-c4ccccc4)nc(N4CCNCC4)c3o2)cc1`: the GI50 in assay [1] was 0.585 µM; in assay [2], 0.276 µM; in assay [3], 0.508 µM; in assay [4], 0.177 µM; in assay [5] it was 0.238 µM; in assay [6] it was 0.947 µM. The GI50 in assay [7] is 1.9 µM; in assay [8] it was 0.181 µM. For the same compound, the TGI in assay [1] worked out at 1.27 µM; in assay [2], 0.729 µM; in assay [3], 1.73 µM; in assay [4] it was 0.323 µM; in assay [5], 0.573 µM; in assay [6], 2.46 µM. Besides, the TGI was found to be 3.42 µM in assay [7] and 0.338 µM in assay [8].
As to `CCSc1nc(SCC)c2c(-c3ccc(OC)c(OC)c3)c(C#N)c(SCC)nc2n1`, the GI50 is 18.7 µM in assay [1]; 83.7 µM in assay [2]; 17.7 µM in assay [3]; 22.9 µM in assay [4]; 68.5 µM in assay [5]; 26.6 µM in assay [6]. In addition, the results for the GI50 in assay [7] and in assay [8] were more than 100 µM and 22.7 µM, respectively. The TGI in assay [1] was 59.1 µM; in assay [2], more than 100 µM; in assay [3], 47.8 µM; in assay [4], 60.1 µM; in assay [5], more than 100 µM; in assay [6], more than 100 µM. Moreover, the values for the TGI in assay [7] and in assay [8] were more than 100 µM and 48.3 µM, respectively.
